For assay [1], the target named is T1, Aurora A kinase (Homo sapiens, UniProt O14965).
T1 sequence (O14965 1-403): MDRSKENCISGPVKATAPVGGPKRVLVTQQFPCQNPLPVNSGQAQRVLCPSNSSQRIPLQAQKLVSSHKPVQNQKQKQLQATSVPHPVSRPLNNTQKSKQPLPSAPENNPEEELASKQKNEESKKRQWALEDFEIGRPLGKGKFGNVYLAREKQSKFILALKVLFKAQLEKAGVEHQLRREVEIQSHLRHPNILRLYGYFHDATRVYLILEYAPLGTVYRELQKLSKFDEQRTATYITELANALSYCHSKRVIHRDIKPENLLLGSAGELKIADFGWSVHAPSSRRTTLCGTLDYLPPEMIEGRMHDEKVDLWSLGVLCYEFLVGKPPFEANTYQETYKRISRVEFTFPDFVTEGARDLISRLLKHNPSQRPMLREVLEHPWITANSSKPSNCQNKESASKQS
Nature of the assay: X-ray crystal structure (Ki by fluorescence anisotropy, from ref […]). Particulars: cited from earlier work. More on the design: gene AURKA. It counts as binding. In general terms: Fluorescence polarisation rises when a labelled molecule tumbles more slowly, as on binding a larger partner.

The target in assay [2] is T1, Aurora A kinase. Nature of the assay: fluorescence anisotropy competition assay (TPX2 displacement). The assay is classed as binding. On the set-up: gene AURKA; with TPX2. The following applies: read-out: K i ^b.

As to `O=C(O)c1cc(-c2cccc(F)c2)nc2ccccc12` [compound 2], at Aurora A kinase [1], the Ki was 16.5 µM.
Consider `Cc1ccc(-c2cc(C(=O)O)c3ccccc3n2)cc1F` [compound 9], for which, at Aurora A kinase [2], the Ki worked out at 8.7 µM.
With `Cc1ccc(-c2cc(C(=O)O)c3ccccc3n2)cc1Br` [compound 10], at Aurora A kinase [2], the Ki came out at 2.3 µM.

Values taken from PMC5591577, “Computationally-guided optimization of small-molecule inhibitors of the Aurora A kinase–TPX2 protein–protein interaction” (Chemical Communications (Cambridge, England), 2017).
